# In ChEMBL document CHEMBL1133065, “Lipopolyamines incorporating the tetraamine spermine, bound to an alkyl chain, sequester bacterial lipopolysaccharide” (Bioorg Med Chem Lett, 2000):
# Experiments:
# Nucleic Acid = assay: The compound was evaluated for binding affinity towards calf thymus DNA.; type: nucleic-acid assay; settings: Bos taurus
# J774.A1 [1] = assay: Inhibition of NO production by J774.A1 cells stimulated for 18 hr with Escherichia coli at 0.5 uM, measured as nitrite using the Griess assay; effectively inhibited; type: functional, cell-based; settings: Mus musculus
# J774.A1 [2] = assay: Inhibition of TNF-alpha production by J774.A1 cells stimulated for 18 hr with Escherichia coli at 0.9 uM, by ELISA assay; effectively inhibited; type: functional, cell-based; settings: Mus musculus
C50 (Nucleic Acid) [µM],SMILES,inhibition (J774.A1 [1]),inhibition (J774.A1 [2])
1.29,CCCCCCCC/C=C/CCCCCCCC(=O)NCCCNCCCCNCCCN,,
1.27,CCCCCCCCCCCCCCCCCC(=O)NCCCNCCCCNCCCN,,
1.35,CCCCCCCCCCCCCCCC(=O)NCCCNCCCCNCCCN,,
0.9,CCCCCCCCCCCCCCCC(=O)NCCCNCCCNCCCCNCCCN,effectively inhibited,effectively inhibited
